Assay results: patent publication US8932807B2, “High throughput in vitro translation (cell-lysate based) assay for detecting quorum sensing signals” (University of South Carolina, priority 2007, dated 2015)

What was measured:
Assay type in all cases: biochemical, Agrobacterium tumefaciens NTL4 (pCF218)(pCF372)
receptor protein TraR [1] = biological target: T1, receptor protein TraR (Agrobacterium tumefaciens, UniProt P33905); assay: cell-free lysate luminescence assay (Beta-Glo) for detection of AHLs; settings: for minimum concentration of AHL resulting in an induction ratio greater than 3, Luminescence assay: cell-free lysate, Beta-Glo, 30° 2 h + 1 h, means±SD (n=3); for minimum detection limit, luminescence assay / level that can be detected, luminescence assay: summary statement; for detection of the AHL by the cell-free assay: comparison of absorbance and luminescence assays
T1 construct: expressed in transfected cells; host or cells: Agrobacterium tumefaciens NTL4 (pCF218)(pCF372); crude cell-free lysate (supernatant of sonicated cells)
Procedure: From step 5) • 6) 50 μl of sample solution containing AHLs was added in 96-well plate. • 7) 50 μl of assay reagent diluted in 20 mM KH2PO4 was added into each well, mix and incubate at 30° for 2 h. • 8) 100 μl of an appropriate luminescent substrate (e.g. β-Glo, Promega) was added into each well, mix and incubate and incubate at 30° C. for 1 h. • 9) luminescence was read by microplate luminometer (e.g. Veritas Turner BioSystems). This experiment is discussed in greater detail below.
(§1) Preparation of cell-free lysate. One liter of the reporter strain was grown in AT minimum glucose media (30° C. with shaking for 18 h) to early exponential-phase and then harvested by centrifugation (12,000×g; 10 min). Cell pellets were collected and resuspended in 5 ml of KH2PO4 buffer (100 mM; pH 7.4), then sonicated for 30 sec. three times and centrifuged (12,000×g) at 4° C. for 30 min to remove particulate cell fragments. The supernatant was collected as the ‘cell-free lysate (CFL)’ reagent, and was stored (−80° C.) until use.
Comparison of absorbance and luminescence assays. To improve the sensitivity of the cell-free approach, a luminescence assay was developed for AHLs. The protocol involved: 1) addition of 50 μl of sample solution containing AHLs into a 96-well plate; 2) addition of 50 μl of cell-free extract, diluted in 20 mM KH2PO4 buffer (pH 7.0) resulting in a protein concentration of 80 μg/ml for each well, and then mixed and incubated at 30° for 2 h; 3) addition of 100 μl of β-Glo® (Promega) into each well, followed by mixing and incubation (30° C. for 1 h); and 4) measurement of luminescence using a Veritus Microplate Luminometer (Turner BioSystems). For control wells, 20 mM KH2PO4 (pH 7.0) buffer was used. To determine the detection limit, a 1:1 serial dilution of each AHL was performed in triplicate using 20 mM KH2PO4 (pH 7.0) buffer. Then, absorbance assays were conducted. Induction of β-galactosidase activity was calculated by dividing the sample absorbance or luminescence with that of controls. An induction ratio greater than 3 was considered active (27).

receptor protein TraR [2] = biological target: T1, receptor protein TraR; assay: cell-free lysate absorbance assay (X-Gal, 635 nm) for detection of AHLs; settings: for minimum concentration of AHL resulting in an induction ratio greater than 3, Absorbance assay: cell-free lysate, X-Gal, absorbance 635 nm, means±SD (n=3)
Procedure: Absorbance Assay • 1) A culture of A. tumefaciens NTL4 (pCF218)(pCF372) was grown in 250 ml of AT minimal glucose media plus streptomycin (50 μg/ml) and tetracycline (5 μg/ml) at 30° C. with shaking for 18 hrs. • 2) The resulting cell culture was centrifuged at 10,000 rpm for 10 min. to collect cell pellets. • 3) The collected cell pellets were sonicated in 8 ml of 0.1 M KH2PO4 (pH 7.0) buffer to produce a homogenate. • 4) The sonicated homogenate was centrifuged at 50,000 rpm for 30 min. and the supernatant solution was collected. • 5) The supernatant solution was stored at −20° C. until the experiment. • 6) 50 μl of a sample solution containing AHLs was added to the wells of a 96-well plate. • 7) 50 μl of the collected supernatant solution from step (5), along with 100 μl of 20 mM KH2PO4, was added and mixed to each sample, and each sample was incubated at 30° for 2 h. • 8) 1 μl of X-Gal (20 mg/ml) was added and mixed into each well, and each sample was incubated at 30° C. for 1 h. • 9) The absorbance of each well was read at 635 nm.
as §1
Confirmation of β-galactosidase expression in vitro cell-free solution. To confirm β-galactosidase expression in cell-free solution, the following simple absorbance assay for AHLs was used. The protocol involved: 1) addition of 50 μl of sample solution containing AHLs into a 96-well plate; 2) addition of 50 μl of cell-free extract and 100 μl of 20 mM KH2PO4 (pH 7.0) into each well, followed by mixing and incubation at 30° C. for 2 h; 3) addition of 1 μl of X-Gal (20 mg/ml) into each well, then mixing and incubation at 30° C. for 1 h; and 4) measurement of absorbance in each well at 635 nm by spectrophotometer (Shimadzu UV-2401 PC UV-VIS, Shimadzu Corp.). To determine the detection limits, 1:1 serial dilutions of each AHL in 20 mM KH2PO4 (pH 7.0) buffer were performed in triplicate. Induction of β-galactosidase activity was calculated by dividing the absorbance of samples by those of controls. An induction ratio greater than 3 was considered active.

[3] = test system: binding of AHL/TraR complex to β-galactosidase promoter; assay: inhibition of Reactions 2) and 3) of the cell-free assay by streptomycin; settings: 1 μM C8-AHL, 30 min pre-incubation, absorbance, FIG. 5C
Procedure: Inhibition of Reactions 2) and 3). […] First, 50 μl aliquots of 1 μM C8-AHL solution was added to each tube, followed by addition of cell-free extract. Further, a series of increasing concentrations of streptomycin (i.e. 0, 50, 125, 250, 300 μg) were added to the cell-free extract and incubated for 30 min. prior to the assay (4, 22, 29). Then, β-galactosidase expression was measured by absorbance.

T1 sequence (P33905 whole entry): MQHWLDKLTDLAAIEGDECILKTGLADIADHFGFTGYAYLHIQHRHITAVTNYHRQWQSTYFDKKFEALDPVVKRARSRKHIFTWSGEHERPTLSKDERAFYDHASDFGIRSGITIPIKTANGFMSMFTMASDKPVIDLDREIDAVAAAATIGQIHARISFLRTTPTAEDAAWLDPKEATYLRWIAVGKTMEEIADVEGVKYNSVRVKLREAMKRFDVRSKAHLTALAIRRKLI

Row | SMILES | minimum concentration of AHL resulting in an induction ratio greater than 3, Luminescence assay (receptor protein TraR [1]) | minimum detection limit, luminescence assay (receptor protein TraR [1]) | minimum concentration of AHL resulting in an induction ratio greater than 3, Absorbance assay (receptor protein TraR [2]) | level that can be detected, luminescence assay (receptor protein TraR [1]) | further results
1 | CCCCCCCC(=O)NC1CCOC1=O (stereo not drawn) [C8-AHL, N-octanoyl-homoserine lactone] | 20 ± 2 nM | approximately 10 nM | 225 ± 11 nM | – | absorbance changes (635 nm) proportional to concentration, up to (receptor protein TraR [2]; dose-response of β-galactosidase expression, FIG. 6): up to 2 μM
2 | CCCC(=O)N[C@H]1CCOC1=O [C4-AHL, N-butanoyl-homoserine lactone] | – | – | – | – | detection of the AHL by the cell-free assay (receptor protein TraR [1]): not able to detect
3 | CCCCCC(=O)NC1CCOC1=O (stereo not drawn) [C6-AHL, N-hexanoyl-homoserine lactone] | 30 ± 3 nM | – | 335 ± 10 nM | low μM level | –
4 | CCCCCCCCCCCCCC(=O)N[C@H]1CCOC1=O [C14-AHL, N-tetradecanoyl-homoserine lactones] | – | – | – | – | detection of the AHL by the cell-free assay (receptor protein TraR [1]): not able to detect
5 | CCCCCC(=O)CC(=O)NC1CCOC1=O (stereo not drawn) [oxo-C8-AHL, N-3-oxo-octanoyl-homoserine lactone] | 10 ± 3 nM | – | 120 ± 10 nM | – | –
6 | CCCC(=O)CC(=O)N[C@H]1CCOC1=O [oxo-C6-AHL, N-3-oxo-hexanoyl-homoserine lactone] | 17 ± 2 nM | approximately 10 nM | 180 ± 25 nM | – | –
7 | [H]/N=C(/N)N[C@H]1[C@H](O)[C@@H](O)[C@H](O[C@@H]2O[C@@H](C)[C@](O)(C=O)[C@H]2O[C@@H]2O[C@@H](CO)[C@H](O)[C@@H](O)[C@@H]2NC)[C@@H](N/C(N)=N\[H])[C@@H]1O [streptomycin] | – | – | – | – | streptomycin additions that reduced assay activities [3]: above 125 μg/ml
8 | CCCCCCCCCCCC(=O)NC1CCOC1=O (stereo not drawn) [C12-AHL, N-dodecanoyl-homoserine lactone] | 200 ± 6 nM | – | 2400 ± 30 nM | low μM level | –
9 | CCCCCCC(=O)N[C@H]1CCOC1=O [C7-AHL, N-heptanoyl-homoserine lactone] | 25 ± 5 nM | approximately 10 nM | 245 ± 8 nM | – | –
10 | CCCCCCCCCC(=O)N[C@H]1CCOC1=O [C10-AHL, N-decanoyl-homoserine lactone] | 100 ± 5 nM | – | 1300 ± 20 nM | low μM level | –
